Like-named read-outs stand apart in the source and are kept apart here.
What was measured:
[1] = Cord blood and maternal plasma darunavir concentrations at delivery; type: in vivo, human
[2] = Clinical and laboratory toxicity monitoring of mothers and infants; details: human, in vivo
HIV-1 RNA = assay: Maternal HIV RNA at delivery and infant HIV infection status; type: in vivo; details: median (range)
wild type HIV = details: cited from earlier work
[3] = cited from earlier work; for Mean decrease in darunavir AUC: third trimester, ref 16 (Colbers, et al)
HIV RNA = details: cited from earlier work
[4] = mean (95%CI), ref 16 (Colbers, et al), cited from earlier work
[5] = Ritonavir pharmacokinetic parameters during pregnancy and postpartum; type: in vivo, human; details: for AUC(0-t): AUC0-12, twice daily dosing; for AUC(0-t) / Cmax: median (interquartile range)
[6] = of 43 subjects, limit 0.09 μg/mL

CC(C)CN(C[C@@H](O)[C@H](Cc1ccccc1)NC(=O)O[C@H]1CO[C@H]2OCC[C@H]21)S(=O)(=O)c1ccc(N)cc1 [darunavir]
Maternal plasma delivery concentration ([1]; median (range), samples above the limit of quantitation): 1.98 µg/mL
Cord blood samples with concentration below the assay limit of quantitation [1, 6]: 15
Maternal samples with concentration below the assay limit of quantitation [1, 6]: 11
Subjects indicating side effects of darunavir as a reason for discontinuation [2]: No subjects
Tolerability during pregnancy and postpartum [2]: well tolerated
HIV-1 RNA at delivery (HIV-1 RNA; Combined N=66): <50 (<50 - 66,142) copies/mL
HIV-1 RNA at delivery (HIV-1 RNA; Once Daily Dosing N=32): <50 (<50 - 35,313) copies/mL
HIV-1 RNA at delivery (HIV-1 RNA; Twice Daily Dosing N=34): 51 (<50 - 66,142) copies/mL
EC50 for wild type HIV (wild type HIV): 0.06 μ/mL
Mean decrease in darunavir AUC ([3]; 6 women, twice daily dosing): 34%
Decrease in darunavir AUC ([3]; 14 women dosed twice daily, second and third trimesters, ref 15 (Zorrilla, et al)): 17-24%
Mean decrease in darunavir AUC ([3]; 18 women, once daily dosing): 22%
Infected infants (HIV RNA; 12 mothers in the Zorrilla study who remained on therapy at delivery, 15 mothers in the Colbers study): no infected infants
Women with HIV RNA below 1000 copies/mL approaching delivery (HIV RNA; once daily dosing, ref 24 (Colbers, et al)): 93%
Subjects with detectable HIV RNA (>50 copies/mL) during pregnancy (HIV RNA; twice daily dosing, ref 15 (Zorrilla, et al)): 3 of 14
Free fraction ([4]; 14 women postpartum): 10%
Free fraction ([4]; 19 women in the third trimester): 12%

CC(C)c1nc(CN(C)C(=O)N[C@H](C(=O)N[C@@H](Cc2ccccc2)C[C@H](O)[C@H](Cc2ccccc2)NC(=O)OCc2cncs2)C(C)C)cs1 [ritonavir]
AUC(0-t) ([5]; female, human, plasma, oral, postpartum): 5600 ng·h/mL
AUC(0-t) ([5]; female, human, plasma, oral, second trimester): 3900 ng·h/mL
AUC(0-t) ([5]; female, human, plasma, oral, third trimester): 3800 ng·h/mL
Cmax ([5]; female, human, plasma, oral, Cmax, once daily dosing, postpartum): 640 ng/mL
Cmax ([5]; female, human, plasma, oral, Cmax, twice daily dosing, second trimester): 470 ng/mL
Cmax ([5]; female, human, plasma, oral, Cmax, twice daily dosing, third trimester): 460 ng/mL
Ritonavir exposure during pregnancy ([5]; in vivo): reduced
Cmax ([5]; once daily dosing, second trimester): 290 ng/mL
Cmax ([5]; once daily dosing, third trimester): 270 ng/mL

— publication PMC4579345 (Journal of acquired immune deficiency syndromes (1999), 2015)
